The results in this text go back to ChEMBL document CHEMBL1201862, “PubChem BioAssay data set” (2004).

A short description of series [1]: Dd2 parasite growth inhibition in erythrocytes – SYBR Green, dry powder samples, set 9, dose response (AID 1159568). It is filed as functional, cell-based.
Series [2] has as its target Ephrin type-A receptor 4 (Mus musculus, UniProt Q03137). The series is described as follows: EphA4 ligand-binding antagonists – biochemical, colorimetric, mouse EphA4, primary screen (AID 689). The class given is functional.
The target of series [3] is Cytochrome P450 2C19 (Homo sapiens, UniProt P33261). Put plainly: Cytochrome panel assay with activity outcomes. Panel member name: p450-cyp2c19 Compounds with AC50 equal or less than 10 uM are considered active. The class given is functional.
Series [4] concerns the target UDP-galactopyranose mutase (Mycobacterium tuberculosis, UniProt P9WIQ1). Put plainly: Inhibitors of Mycobacterium tuberculosis UDP-galactopyranose mutase (UGM) enzyme Measured in Biochemical System Using Plate Reader - 2105-02_Inhibitor_Dose_CherryPick_Activity. [Related pubchem assays (depositor defined):AID504439].
Series [5] addresses Delta-type opioid receptor (Homo sapiens, UniProt P41143). Put plainly: Counterscreen for agonists of heterodimerization of the mu 1 (OPRM1) and delta 1 (OPRD1) opioid receptors: Luminescence-based cell-based high throughput dose response assay to identify agonists of OPRD1 homodimerization. [Related pubchem assays (depositor defined):AID504326, AID504355, AID504692, AID504904, AID504905]. It is filed as functional. For orientation: A counterscreen serves to expose hits that act by an unwanted route or on another target.

Series [6] deals with Mu-type opioid receptor (Homo sapiens, UniProt P35372). The series is described as follows: Counterscreen for agonists of heterodimerization of the mu 1 (OPRM1) and delta 1 (OPRD1) opioid receptors: Luminescence-based cell-based high throughput dose response assay to identify agonists of OPRM1 homodimerization. The class given is functional.
Series [7] addresses 5-hydroxytryptamine receptor 5A (Homo sapiens, UniProt P47898). The series is described as follows: Counterscreen for agonists of OPRM1-OPRD1 heterodimerization: luminescence-based cell-based high throughput dose response assay to identify agonists of 5-hydroxytryptamine (serotonin) 5A receptor (HTR5A). [Related pubchem assays (depositor defined):AID504326, AID504355, AID504692, AID504904, AID504905]. The class given is functional.

Series [8] is described as follows: Fluorescence-based cell-based high throughput dose response assay for inhibitors of the interaction of nucleotide-binding oligomerization domain containing 2 (NOD2) and the receptor-interacting serine-threonine kinase 2 (RIPK2). The class given is functional. As to conditions: Homo sapiens.
In series [9] the target is Beta Lactamase (Pseudomonas aeruginosa, UniProt Q932Y6). The series is described as follows: BLA reporter interference, concentration series – BLA reporter cells, FRET fluorescence, artefact control for NOD2-RIPK2 interaction inhibitor project, dose response (AID 651552). The class given is functional, cell-based.
Series [10] can be described thus: activation of miR-122 Renilla sensor silencing – cell-based, Huh7 psiCHECK-miR122, Renilla luciferase, cherry-picked, dose response (AID 651956).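 Further: huh7 hepatoma cells stably carrying a psiCHECK-2 miR-122 sensor plasmid; renilla luciferase signal reporting endogenous miR-122 activity after 48 h compound exposure.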 It is filed as functional.
A short description of series [11]: viability loss in HeLa cells – cytotoxicity control for MgcRacGAP inhibitor project, dose response (AID 624300). It is filed as functional.
Series [12] has as its target T1, Rac GTPase-activating protein 1 (Homo sapiens, UniProt Q9H0H5).
T1 sequence (Q9H0H5 whole entry): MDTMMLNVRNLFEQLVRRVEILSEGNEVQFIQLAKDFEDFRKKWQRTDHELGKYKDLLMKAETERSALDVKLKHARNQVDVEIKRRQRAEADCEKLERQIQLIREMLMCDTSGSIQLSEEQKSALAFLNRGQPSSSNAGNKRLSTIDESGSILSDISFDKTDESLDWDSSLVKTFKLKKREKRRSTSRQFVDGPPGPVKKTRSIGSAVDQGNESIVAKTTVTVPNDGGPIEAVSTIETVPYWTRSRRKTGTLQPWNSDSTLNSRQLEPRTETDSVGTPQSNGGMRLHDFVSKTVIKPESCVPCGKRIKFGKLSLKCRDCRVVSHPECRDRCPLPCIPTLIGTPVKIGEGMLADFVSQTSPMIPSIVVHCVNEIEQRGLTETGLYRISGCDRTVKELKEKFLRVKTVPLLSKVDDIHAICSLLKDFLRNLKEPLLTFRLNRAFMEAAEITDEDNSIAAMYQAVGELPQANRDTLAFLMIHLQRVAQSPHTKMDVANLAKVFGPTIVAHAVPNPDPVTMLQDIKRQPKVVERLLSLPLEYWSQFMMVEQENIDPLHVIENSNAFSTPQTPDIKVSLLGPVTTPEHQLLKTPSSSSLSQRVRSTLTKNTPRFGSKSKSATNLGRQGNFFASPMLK
Put plainly: blockers of MgcRacGAP-driven Rac1 GTP hydrolysis – biochemical, ADP Hunter fluorescence, primary and confirmatory, confirmation (AID 624330). The class given is functional.

Series [13] has as its target E3 ubiquitin-protein ligase UHRF1 (Homo sapiens, UniProt Q96T88). The series is described as follows: Counterscreen for inhibitors of 5-meCpG-binding domain protein 2 (MBD2): TRFRET-based biochemical high throughput dose response assay to identify inhibitors of binding of ubiquitin-like with PHD and ring finger domains 1 (UHRF1) to methylated oligonucleotide.
Series [14] in a line: general mammalian cell viability loss – inhibitor set, cherry-pick, set 2, cytotoxicity control for miR-122 modulator project, dose response (AID 720697). It is filed as functional, cell-based.
Series [15] can be described thus: inhibitors of TRPM1-promoter reporter in SK-MEL-5 – cell-based, luciferase, dry powder, set 9, MITF inhibitor project, dose response (AID 651588). The class given is functional.
Series [16] in a line: MITF Orthogonal Assay: MALME3 CTG Assay Measured in Cell-Based System Using Plate Reader - 2084-04_Inhibitor_Dose_DryPowder_Activity_Set6. The class given is functional. Conditions: MALME-3.
Series [17] is described as follows: growth inhibition of SK-MEL-5 melanoma cells – cell-based, CellTiter-Glo luminescence, dry powder, set 8, orthogonal assay for MITF inhibitor project, dose response (AID 651586). The class given is functional. Background: ATP-based viability assays read luminescence as a measure of living cells.
A short description of series [18]: growth inhibition of MALME3 cells – cell-based, CellTiter-Glo luminescence, dry powder, set 5, orthogonal assay for MITF inhibitor project, dose response (AID 651584). As to conditions: MALME-3. The class given is functional.
Series [19] can be described thus: MITF Orthogonal Assay: SK-MEL-5 CTG Assay Measured in Cell-Based System Using Plate Reader - 2084-02_Inhibitor_Dose_DryPowder_Activity_Set7. It is filed as functional.
Series [20] in a line: MITF: Counter assay: A375 proliferation Measured in Cell-Based System Using Plate Reader - 2084-03_Inhibitor_Dose_DryPowder_Activity_Set8. As to conditions: A-375. It is filed as functional.
The nature of series [21]: cytotoxicity in MITF-independent A375 cells – cell-based, CellTiter-Glo luminescence, dry powder, set 9, counter-screen for MITF modulator project, dose response (AID 651591). The class given is functional. Conditions: A-375.
Series [22] in a line: inhibitors of TRPM1-promoter reporter in SK-MEL-5 – cell-based, luciferase, dry powder, set 8, MITF inhibitor project, dose response (AID 624430). It is filed as functional.
Series [23] is described as follows: IC50 of insulin release inhibition, rat insulinoma INS-1E line, 5 mM glucose, cell-based (AID 1117331). It is filed as functional.
Series [24] is described as follows: cells. As to conditions: INS-1E. It is filed as functional, cell-based.
Series [25] deals with NADPH oxidase 1 (Homo sapiens, UniProt Q9Y5S8). Put plainly: Late-stage luminescence-based cell-based dose response assay to identify inhibitors of NADPH oxidase 1 (NOX1): Purchased analogs 2. It is filed as functional.
The target in series [26] is Ubiquitin carboxyl-terminal hydrolase BAP1 (Homo sapiens, UniProt Q92560). The series is described as follows: inhibition of BAP1 ubiquitin hydrolase activity – biochemical, dose response (AID 714). The class given is functional.
The target of series [27] is RNA-editing ligase 1, mitochondrial (Trypanosoma brucei brucei, UniProt P86926). The series is described as follows: inhibition of trypanosome RNA editing ligase – biochemical, fluorescence, Trypanosoma brucei, dose response (AID 1117295). It is filed as functional.

Calls of active or inactive are those of the source.

Chain of RNA-editing ligase 1, mitochondrial (P86926 whole entry): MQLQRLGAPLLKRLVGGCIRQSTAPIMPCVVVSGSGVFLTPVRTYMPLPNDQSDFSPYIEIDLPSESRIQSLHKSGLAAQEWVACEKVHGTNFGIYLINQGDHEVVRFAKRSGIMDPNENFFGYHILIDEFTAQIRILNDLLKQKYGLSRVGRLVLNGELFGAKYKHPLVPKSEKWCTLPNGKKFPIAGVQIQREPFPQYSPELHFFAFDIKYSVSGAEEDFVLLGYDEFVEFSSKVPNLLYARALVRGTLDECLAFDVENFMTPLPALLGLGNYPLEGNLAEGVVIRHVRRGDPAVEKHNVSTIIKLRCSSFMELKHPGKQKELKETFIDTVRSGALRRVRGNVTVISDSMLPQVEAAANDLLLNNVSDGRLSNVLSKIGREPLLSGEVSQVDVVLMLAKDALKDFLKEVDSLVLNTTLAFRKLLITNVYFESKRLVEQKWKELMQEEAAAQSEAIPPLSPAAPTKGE
Chain of Ubiquitin carboxyl-terminal hydrolase BAP1 (Q92560 whole entry): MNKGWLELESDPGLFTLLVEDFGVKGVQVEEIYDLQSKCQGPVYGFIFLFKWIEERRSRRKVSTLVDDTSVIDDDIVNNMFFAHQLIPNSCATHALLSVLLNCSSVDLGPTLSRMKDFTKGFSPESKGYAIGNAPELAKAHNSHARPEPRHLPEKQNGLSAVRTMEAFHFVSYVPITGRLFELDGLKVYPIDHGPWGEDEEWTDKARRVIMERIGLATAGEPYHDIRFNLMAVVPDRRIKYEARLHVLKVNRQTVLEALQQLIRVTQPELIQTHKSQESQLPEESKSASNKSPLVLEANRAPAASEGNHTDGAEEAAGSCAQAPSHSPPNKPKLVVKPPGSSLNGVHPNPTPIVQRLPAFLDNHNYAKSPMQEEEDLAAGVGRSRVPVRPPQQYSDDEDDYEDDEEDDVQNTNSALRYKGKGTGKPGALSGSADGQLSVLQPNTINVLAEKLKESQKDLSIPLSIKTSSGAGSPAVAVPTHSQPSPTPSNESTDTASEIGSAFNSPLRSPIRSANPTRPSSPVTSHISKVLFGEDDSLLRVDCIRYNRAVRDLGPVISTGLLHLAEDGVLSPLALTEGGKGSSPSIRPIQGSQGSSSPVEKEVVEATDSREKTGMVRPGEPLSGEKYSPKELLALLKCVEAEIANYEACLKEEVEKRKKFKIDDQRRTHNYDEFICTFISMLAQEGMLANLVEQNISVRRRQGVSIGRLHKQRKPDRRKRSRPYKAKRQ
Chain of Cytochrome P450 2C19 (P33261 whole entry): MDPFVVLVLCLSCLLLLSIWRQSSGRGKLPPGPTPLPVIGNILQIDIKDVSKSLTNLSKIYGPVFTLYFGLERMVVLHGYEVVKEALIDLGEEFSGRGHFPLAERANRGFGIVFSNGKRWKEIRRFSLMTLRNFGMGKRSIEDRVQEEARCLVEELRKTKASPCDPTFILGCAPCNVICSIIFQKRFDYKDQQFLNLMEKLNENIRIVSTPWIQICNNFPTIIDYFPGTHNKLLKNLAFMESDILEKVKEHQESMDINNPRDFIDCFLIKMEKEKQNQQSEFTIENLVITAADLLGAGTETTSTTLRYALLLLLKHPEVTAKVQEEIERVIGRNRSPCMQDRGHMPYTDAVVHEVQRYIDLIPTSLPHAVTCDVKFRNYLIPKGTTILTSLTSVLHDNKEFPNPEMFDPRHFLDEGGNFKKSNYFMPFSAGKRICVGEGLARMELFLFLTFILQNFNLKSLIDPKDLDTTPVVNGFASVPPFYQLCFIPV
Chain of UDP-galactopyranose mutase (P9WIQ1 whole entry): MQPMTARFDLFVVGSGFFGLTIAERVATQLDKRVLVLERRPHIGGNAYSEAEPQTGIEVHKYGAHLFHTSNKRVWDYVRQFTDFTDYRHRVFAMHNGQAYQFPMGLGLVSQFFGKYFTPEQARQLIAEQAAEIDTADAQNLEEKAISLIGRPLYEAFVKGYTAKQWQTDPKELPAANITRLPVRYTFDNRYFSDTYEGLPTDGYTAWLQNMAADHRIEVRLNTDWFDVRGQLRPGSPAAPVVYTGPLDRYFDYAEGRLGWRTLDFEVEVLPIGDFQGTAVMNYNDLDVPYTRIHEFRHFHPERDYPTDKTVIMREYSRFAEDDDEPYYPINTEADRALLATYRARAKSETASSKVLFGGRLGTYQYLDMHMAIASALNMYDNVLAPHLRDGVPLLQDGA
Chain of 5-hydroxytryptamine receptor 5A (P47898 whole entry): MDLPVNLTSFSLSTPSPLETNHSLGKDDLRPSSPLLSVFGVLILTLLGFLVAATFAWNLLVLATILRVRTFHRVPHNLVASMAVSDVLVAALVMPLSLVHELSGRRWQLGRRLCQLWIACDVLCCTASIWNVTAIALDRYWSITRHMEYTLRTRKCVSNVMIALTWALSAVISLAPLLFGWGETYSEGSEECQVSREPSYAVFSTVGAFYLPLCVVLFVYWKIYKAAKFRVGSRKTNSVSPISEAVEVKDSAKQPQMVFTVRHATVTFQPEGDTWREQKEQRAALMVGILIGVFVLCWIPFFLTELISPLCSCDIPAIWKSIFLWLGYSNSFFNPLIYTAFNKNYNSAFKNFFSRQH
Chain of Delta-type opioid receptor (P41143 whole entry): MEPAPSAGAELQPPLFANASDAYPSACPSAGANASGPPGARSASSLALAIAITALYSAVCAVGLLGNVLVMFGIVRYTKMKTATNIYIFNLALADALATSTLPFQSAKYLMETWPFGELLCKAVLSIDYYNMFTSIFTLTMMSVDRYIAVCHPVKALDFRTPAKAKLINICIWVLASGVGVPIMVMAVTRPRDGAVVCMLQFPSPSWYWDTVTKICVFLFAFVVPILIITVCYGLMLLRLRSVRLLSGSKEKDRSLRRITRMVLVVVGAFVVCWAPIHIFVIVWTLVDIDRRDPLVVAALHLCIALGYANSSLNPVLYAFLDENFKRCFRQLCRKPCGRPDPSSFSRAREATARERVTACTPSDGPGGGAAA
Chain of NADPH oxidase 1 (Q9Y5S8 whole entry): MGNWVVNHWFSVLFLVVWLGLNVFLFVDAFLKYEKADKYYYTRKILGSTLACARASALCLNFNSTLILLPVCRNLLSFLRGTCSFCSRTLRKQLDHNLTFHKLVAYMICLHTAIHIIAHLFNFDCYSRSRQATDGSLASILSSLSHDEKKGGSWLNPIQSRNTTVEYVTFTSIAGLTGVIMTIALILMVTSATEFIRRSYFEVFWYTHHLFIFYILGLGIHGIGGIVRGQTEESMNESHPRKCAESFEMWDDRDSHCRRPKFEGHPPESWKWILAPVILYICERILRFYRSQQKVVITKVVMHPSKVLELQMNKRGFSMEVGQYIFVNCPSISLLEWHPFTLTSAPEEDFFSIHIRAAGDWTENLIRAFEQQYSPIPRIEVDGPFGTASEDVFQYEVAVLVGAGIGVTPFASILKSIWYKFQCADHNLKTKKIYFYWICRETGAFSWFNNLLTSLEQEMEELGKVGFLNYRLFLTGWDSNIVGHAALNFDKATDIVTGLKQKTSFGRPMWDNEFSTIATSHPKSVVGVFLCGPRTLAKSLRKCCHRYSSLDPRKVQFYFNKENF
Chain of Ephrin type-A receptor 4 (Q03137 whole entry): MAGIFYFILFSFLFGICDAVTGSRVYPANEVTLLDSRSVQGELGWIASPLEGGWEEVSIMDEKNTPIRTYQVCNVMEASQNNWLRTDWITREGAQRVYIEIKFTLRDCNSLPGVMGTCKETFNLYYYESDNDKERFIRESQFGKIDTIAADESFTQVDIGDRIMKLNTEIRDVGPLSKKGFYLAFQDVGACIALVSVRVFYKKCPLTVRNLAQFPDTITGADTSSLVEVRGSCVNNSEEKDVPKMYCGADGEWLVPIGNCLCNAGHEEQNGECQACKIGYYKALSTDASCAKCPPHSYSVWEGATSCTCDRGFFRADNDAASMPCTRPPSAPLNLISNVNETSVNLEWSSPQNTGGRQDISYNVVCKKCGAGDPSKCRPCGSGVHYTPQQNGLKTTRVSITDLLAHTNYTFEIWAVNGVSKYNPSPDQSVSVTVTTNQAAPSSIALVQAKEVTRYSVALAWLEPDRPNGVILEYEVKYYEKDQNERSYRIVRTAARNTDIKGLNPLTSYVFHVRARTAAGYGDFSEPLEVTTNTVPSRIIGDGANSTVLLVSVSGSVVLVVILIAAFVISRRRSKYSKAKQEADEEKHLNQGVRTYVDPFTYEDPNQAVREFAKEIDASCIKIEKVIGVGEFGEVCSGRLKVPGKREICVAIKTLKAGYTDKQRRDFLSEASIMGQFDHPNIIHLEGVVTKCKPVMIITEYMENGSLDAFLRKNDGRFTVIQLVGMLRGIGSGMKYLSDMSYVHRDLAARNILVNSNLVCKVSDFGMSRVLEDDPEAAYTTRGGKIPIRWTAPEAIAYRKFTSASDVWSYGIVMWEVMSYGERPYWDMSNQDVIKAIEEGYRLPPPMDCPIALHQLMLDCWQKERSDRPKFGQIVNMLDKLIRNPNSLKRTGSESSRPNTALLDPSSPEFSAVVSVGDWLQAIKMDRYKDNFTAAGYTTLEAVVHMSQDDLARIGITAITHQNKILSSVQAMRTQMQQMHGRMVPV
Chain of Mu-type opioid receptor (P35372 whole entry): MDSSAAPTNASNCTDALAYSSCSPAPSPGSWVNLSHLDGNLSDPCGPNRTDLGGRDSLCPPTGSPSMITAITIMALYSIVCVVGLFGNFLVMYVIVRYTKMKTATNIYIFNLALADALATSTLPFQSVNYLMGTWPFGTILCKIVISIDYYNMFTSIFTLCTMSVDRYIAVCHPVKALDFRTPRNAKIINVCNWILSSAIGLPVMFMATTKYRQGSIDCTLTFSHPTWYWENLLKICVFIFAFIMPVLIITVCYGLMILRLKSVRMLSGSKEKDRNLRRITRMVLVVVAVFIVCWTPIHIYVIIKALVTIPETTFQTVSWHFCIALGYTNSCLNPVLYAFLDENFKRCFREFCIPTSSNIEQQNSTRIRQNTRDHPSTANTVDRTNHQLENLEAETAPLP

Usually AC50 stands for the concentration giving half of the maximal activity seen. For the compound `Cc1ccccc1-c1ccc([C@@H]2[C@H](CO)N3CCCCN(S(=O)(=O)Cc4ccccc4)C[C@@H]23)cc1`, the AC50 in series [1] was 0.878 µM (active).
A word on the IC50: it is the concentration needed to halve the response being measured. Take `CCCCn1nc(-c2ccccc2)c2nc3ccccc3nc21`: the IC50 in series [2] was 13.1 µM (active). Besides, the AC50 result is “inconclusive” in [3] and 41.9 µM (active) in series [4].
For orientation: EC50 means the concentration giving half of the maximal effect. Broadly, the CC50 is the concentration that lowers cell viability or growth by half. In the case of `Cc1cc2[nH]c3c4ccccc4nc(C)c3c2cc1C`, the EC50 in [5], in series [6] and in series [7] was > 92.4 µM (inactive) in each case. In addition, the IC50 in series [8] was 15.5 µM (inactive); in series [9], 23.6 µM (inactive); in series [12], 38.9 µM (active); in series [13], 19 µM (inactive). The AC50 in series [10] is 10.8 µM (active); in series [14], 3.57 µM (active). Also, the CC50 in [11] is 12.4 µM (active).
For `O=C1C(Nc2ccc(F)cc2)=C(N2CCCCC2)C(=O)c2ccccc21`, the AC50 in [15] is 8.63 µM (active); in series [16], 14.1 µM (active); in [17] it was 25.8 µM (active); in [18], 14.1 µM (active); in [19], 8.64 µM (active); in series [20], 57.6 µM (active). The concentration at half-maximal activity (AC50) is 27.4 µM (active) in series [21] and 2.24 µM (active) in [22].
As for `Oc1ccc(CCNCCCCCCNCCc2ccccc2)cc1O` [DOPEXAMINE], the IC50 in series [23] and in [24] was > 33.3 µM (inactive) each time.
On to `O=[N+]([O-])c1ccc(/C=N/Nc2c(Cl)cc(Cl)cc2Cl)cc1`, for which the IC50 in series [25] is > 17 µM (not active).
`Nc1c(C(O)(C(F)(F)F)C(F)(F)F)ccc2ccccc12`: the IC50 in [26] is > 50 µM (not active).
On to `COC(=O)C1=C(C)N(Cc2cccc(C(F)(F)F)c2)C(NCc2ccccc2)=NC1c1ccccc1C(F)(F)F` (configuration not stated), for which, in [27], the IC50 was > 96.6 µM (inactive).
